Read-outs that look alike come from different tables or passages of the source. Marks after values point to notes of the source that are not given here.
How the values were obtained:
cervical secretion = settings: clinical study; cited from earlier work
fertility of female rats = experiment: Rat fertility test: single application in pro oestrus, pairing, number of implantation sites; assay type: in vivo, Han Wistar rats
Description: In the experiments below, female Han Wistar rats with a weight of 200-270 g were used. The animals were kept in Macrolon cages in rooms with controlled lighting (12 hours darkness: 12 hours lightness), fed with a standard diet and watered with water ad libitum. Levonorgestrel was dissolved in benzyl benzoate/castor oil (1+4 v/v) and the daily dose was applied in a volume of 1 ml/kg of body weight s.c. The COX inhibitors were suspended in a carrier liquid (85 mg Myrj®53 polyoxyl(50)stearate; CAS No. 9004-99-3) in 100 ml of 0.9% w/v NaCl solution) and the dose corresponding to the treatment group was administered orally in a volume of 2 ml/kg of body weight. Two cycles were observed using vaginal smears prior to the start of the experiment. […] Assignment to the treatment groups was random. The animals were treated once with the test substances either on their own or in combination in pro oestrus, the day in the cycle on which in the evening the LH peaked. On the evening of […] the female animals were paired with male rats. Successful pairing was tested the next morning by means of a vaginal sperm detection in the vaginal smear. The influence on the fertility was ascertained 9-15 days after the pairing via the number of implantation sites of the animals. The group size was n=6 animals per group.

[1] = system: prostaglandin E2 (PEG2) synthesis in the ovaries
fertility in humans = settings: taken over a prolonged period for treating Bechterew's disease; cited from earlier work
ovulation of women = experiment: Clinical phase IIa study: oral single dose of piroxicam after start of the LH increase, ovulation inhibition or delay; assay type: in vivo; settings: for Time from LH increase to ovulation in the treatment cycle, average value / Time from LH increase to ovulation in the treatment cycle, median / Time from LH increase to ovulation in the treatment cycle, range: N = 16; for % of women who exhibited an at least plus 24 hour delay in ovulation / Number of women who exhibited an at least plus 24 hour delay in ovulation compared to the median time between LH increase and ovulation in the untreated previous cycle: N = 16, final evaluation set
Description: In a clinical phase IIa study (monocentric, double blind, placebo controlled, randomized, parallel groups), piroxicam was administered to women of a fertile age in the dosages 20, 40 and 80 mg as an oral single dose. Overall, 72 women were treated, of which 18 women were given 20 mg, 17 women were given 40 mg, 20 women were given 80 mg of piroxicam and 17 women were given a placebo preparation. It was the aim of the study to investigate whether the oral single administration of piroxicam after the start of the LH increase has an effect on ovulation compared to the placebo in healthy young women. An ovulation inhibition or delay by at least plus 24 hours longer than the median duration between LH increase and ovulation in the untreated previous cycle of the study population was evaluated as the effect. For this purpose, transvaginal ultrasound investigations and hormone level measurements were carried out. Only women (n=64) without serious protocol deviations which could have influenced the study aim were included in the final study evaluation.
Adapted Kaplan-Meier curve for depicting the ovulation delay following administration of piroxicam compared to the administration of a placebo preparation. The time after the LH increase is plotted on the X axis in days. […] The individual curves represent the individual treatment groups: placebo group (solid line); 20 mg of piroxicam (dotted line consisting of short strokes), 40 mg of piroxicam (dotted line consisting of long strokes) and 80 mg of piroxicam (dotted line consisting of alternating long and short strokes).

[2] = Table 2.3, treatment at 17:00, LNG 0.5 mg/animal (n = 5), diclofenac 4 mg/animal
[3] = Table 2.4, treatment at 17:00, LNG 0.5 mg/animal, ibuprofen 12.5 mg/animal
[4] = Table 2.4, treatment at 17:00, ibuprofen 25 mg/animal alone or with LNG 0.5 mg/animal
[5] = Table 2.2, treatment at 17:00, LNG 0.5 mg/animal, indomethacin 1 mg/animal, combination n = 5
[6] = Table 2.1, treatment at 7:00, LNG 0.5 mg/animal s.c., piroxicam 2 mg/animal oral, single application
[7] = Table 2.1, treatment at 13:00, LNG 0.5 mg/animal s.c., piroxicam 2 mg/animal oral, single application
[8] = Table 2.5, LNG 0.5 mg/animal at 17:00 (n = 5), naproxen 10 mg/animal at 20:00 (n = 4), combination 17:00
[9] = Table 2.5, naproxen 2 × 5 mg/animal at 17:00 and 20:00, alone or with LNG 0.5 mg/animal

O=C(O)Cc1ccccc1Nc1c(Cl)cccc1Cl [Diclofenac, diclofenac]
Effect on cervical secretion (in words) (cervical secretion): reduction in cervical secretion
Implantations per animal (average value ± SD) (fertility of female rats; [2]): 3.7 ± 3.6
Sum of the implantation sites of 6 animals (fertility of female rats; [2]): 22

CC(C)Cc1ccc(C(C)C(=O)O)cc1 (stereo not drawn) [Ibuprofen, ibuprofen]
Implantations per animal (average value ± SD) (fertility of female rats; [3]): 10.8 ± 3.2
Sum of the implantation sites of 6 animals (fertility of female rats; [3]): 65
Implantations per animal (average value ± SD) (fertility of female rats; [4]): 11.3 ± 2.6
Sum of the implantation sites of 6 animals (fertility of female rats; [4]): 68

COc1ccc2c(c1)c(CC(=O)O)c(C)n2C(=O)c1ccc(Cl)cc1 [Indomethacin, indomethacin]
Implantations per animal (average value ± SD) (fertility of female rats; [5]): 4.8 ± 4.1
Sum of the implantation sites of 6 animals (fertility of female rats; [5]): 29

C#C[C@]1(O)CC[C@H]2[C@@H]3CCC4=CC(=O)CC[C@@H]4[C@H]3CC[C@@]21CC [LNG, levonorgestrel]
Implantations per animal (average value ± SD) (fertility of female rats; [6]): 8.3 ± 4.3
Sum of the implantation site, of 6 animals (fertility of female rats; [6]): 50
Implantations per animal (average value ± SD) (fertility of female rats; [7]): 5.3 ± 3.1
Sum of the implantation site, of 6 animals (fertility of female rats; [7]): 32
Implantations per animal (average value ± SD) (fertility of female rats; [5]): 7.5 ± 4.0
Sum of the implantation sites of 6 animals (fertility of female rats; [5]): 45
Implantations per animal (average value ± SD) (fertility of female rats; [2]): 6.8 ± 5.9
Sum of the implantation sites of 6 animals (fertility of female rats; [2]): 34*
Implantations per animal (average value ± SD) (fertility of female rats; [3]): 10.5 ± 4.5
Sum of the implantation sites of 6 animals (fertility of female rats; [3]): 63
Implantations per animal (average value ± SD) (fertility of female rats; [8]): 7.8 ± 5.9
Sum of the implantation sites of 6 animals (fertility of female rats; [8]): 39*

COc1ccc2cc([C@H](C)C(=O)O)ccc2c1 [Naproxen, naproxen]
Prostaglandin E2 in the ovaries, average value ([1]; sample at 18:00, 2 hours after oral 20 mg/kg naproxen (around 16:00)): 12.9 pg/500 μg tissue
Prostaglandin E2 in the ovaries, average value ([1]; sample at 20:00, 4 hours after oral 20 mg/kg naproxen (around 16:00)): 32.1 pg/500 μg tissue
Prostaglandin E2 in the ovaries, average value ([1]; sample at 22:00, 6 hours after oral 20 mg/kg naproxen (around 16:00)): 72.4 pg/500 μg tissue
Prostaglandin E2 (PEG2) synthesis in the ovaries (in words) ([1]; under the action of naproxen): reduced
Implantations per animal (average value ± SD) (fertility of female rats; [8]): 5.8 ± 4.4
Sum of the implantation sites of 6 animals (fertility of female rats; [8]): 23**
Implantations per animal (average value ± SD) (fertility of female rats; [9]): 7.3 ± 3.6
Sum of the implantation sites of 6 animals (fertility of female rats; [9]): 44
Antifertile effect in the rat fertility test (in words) (fertility of female rats; single application, doses as in Tables 2.1-2.5): reduction in fertility
Effect on fertility in humans (in words) (fertility in humans): antifertile effect

CN1C(C(=O)Nc2ccccn2)=C(O)c2ccccc2S1(=O)=O [Piroxicam, piroxicam]
Extension of the time (median) between LH increase and ovulation in the treatment cycle compared to the previous cycle (ovulation of women; 20 mg oral single dose): 17 h
Time from LH increase to ovulation in the treatment cycle, average value (ovulation of women; 20 mg oral single dose): 133 h
Time from LH increase to ovulation in the treatment cycle, median (ovulation of women; 20 mg oral single dose): 65 h
Time from LH increase to ovulation in the treatment cycle, range (ovulation of women; 20 mg oral single dose): 38 to 416 h
% of women who exhibited an at least plus 24 hour delay in ovulation (ovulation of women; 20 mg oral single dose): 50.0%
Number of women who exhibited an at least plus 24 hour delay in ovulation compared to the median time between LH increase and ovulation in the untreated previous cycle (ovulation of women; 20 mg oral single dose): 8
Extension of the time (median) between LH increase and ovulation in the treatment cycle compared to the previous cycle (ovulation of women; 40 mg oral single dose): 15 h
Time from LH increase to ovulation in the treatment cycle, average value (ovulation of women; 40 mg oral single dose): 121 h
Time from LH increase to ovulation in the treatment cycle, median (ovulation of women; 40 mg oral single dose): 63 h
Time from LH increase to ovulation in the treatment cycle, range (ovulation of women; 40 mg oral single dose): 37 to 384 h
% of women who exhibited an at least plus 24 hour delay in ovulation (ovulation of women; 40 mg oral single dose): 43.8%
Number of women who exhibited an at least plus 24 hour delay in ovulation compared to the median time between LH increase and ovulation in the untreated previous cycle (ovulation of women; 40 mg oral single dose): 7
Extension of the time (median) between LH increase and ovulation in the treatment cycle compared to the previous cycle (ovulation of women; 80 mg oral single dose): 228 h
Time from LH increase to ovulation in the treatment cycle, average value (ovulation of women; 80 mg oral single dose): 219 h
Time from LH increase to ovulation in the treatment cycle, median (ovulation of women; 80 mg oral single dose): 276 h
Time from LH increase to ovulation in the treatment cycle, range (ovulation of women; 80 mg oral single dose): 48 to 386 h
% of women who exhibited an at least plus 24 hour delay in ovulation (ovulation of women; 80 mg oral single dose): 68.8%
Number of women who exhibited an at least plus 24 hour delay in ovulation compared to the median time between LH increase and ovulation in the untreated previous cycle (ovulation of women; 80 mg oral single dose): 11
Effect on ovulation compared to placebo (in words) (ovulation of women; all three dose groups (20, 40, 80 mg)): more marked effect on ovulation than in the placebo group
Implantations per animal (average value ± SD) (fertility of female rats; [6]): 9.5 ± 4.8
Sum of the implantation site, of 6 animals (fertility of female rats; [6]): 57
Implantations per animal (average value ± SD) (fertility of female rats; [7]): 10.0 ± 5.3
Sum of the implantation site, of 6 animals (fertility of female rats; [7]): 60
